Patent publication US20180326022A1, “COMPOSITIONS AND METHODS FOR IMPROVING HEART FUNCTION AND TREATING HEART FAILURE” (The Trustees of the University of Pennsylvania, priority 2017, published 2018)

Key:
rat adult cardiomyocytes = test: Immunofluorescence quantification of α- and dTyr-tubulin fraction of cell area; type: cell-based
Method: (§1) Viral constructs were permitted to express for 24-72 hours with Moi=100-200. Parthenolide (Fisher Scientific NC9013142) treatment was carried out at room temperature for 2 hours at 10 μM. All experiments were performed within 48 hours of isolation, except those involving shTTL, which were allowed 72 hours to improve knockdown efficiency.
Cells were fixed in 4% PFA for 15 minutes and permeabilized in 0.5% TritonX-100 for 4 minutes at room temperature. Alternately cells were fixed in methanol at −20° C. for 7 minutes. After washing, cells were placed in blocking buffer (5% BSA and 0.1% TritonX-100 in PBS) for 1 hour, then labeled with primary antibodies (below) for 24-48 hours at 4° C. Cells were then washed 4× in blocking buffer, labeled with secondary antibodies (below) at room temperature and washed 3× in blocking buffer. Stained cells were mounted on mouse laminin coated #1.5 coverslips in Prolong Gold Antifade Mountant (Life Technologies P36934) for imaging.
(§2) Confocal imaging was carried out on a Zeiss 780 laser scanning confocal scan head operating on an Axiovert Z1 inverted microscope equipped with a 40× oil 1.4 NA objective. High-speed super resolution imaging was carried out on a Zeiss 880 Airyscan confocal with a 63×1.4 oil NA objective (FIG. 8A-FIG. 8E, Airyscan application note can be found at http://www.zeiss.com/microscopy/enus/products/confocal-microscopes/Ism-880-with-airyscan-.html#downloads). Image analysis was performed using ZEN Black software for Airyscan processing, which involves signal integration from the 32 separate sub-resolution detectors in the Airyscan detector and subsequent deconvolution of this integrated signal (FIG. 8A-FIG. 8E). Additional signal processing was performed in Image J (NIH). For calculating the microtubule fraction of cell area (FIG. 2B-FIG. 2C), image analysis was performed blinded to the experimental treatment groups. A 1.5 μm max intensity projection was produced from 3 0.5 μm confocal z-sections. […] From the resulting binary images (FIG. 9B), the microtubule positive fraction of the total cell area was calculated for alpha and detyrosinated tubulin (FIG. 2C).

WT myocytes = test: AFM viscoelasticity, WT mouse myocytes; type: cell-based; details: WT + PTL
Method: (§3) Animal care and procedures were approved and performed in accordance with the standards set forth by the University of Pennsylvania Institutional Animal Care and Use Committee and the Guide for the Care and Use of Laboratory Animals published by the US National Institutes of Health. Desmin knockout mice and WT littermates were provided by Dr. Robert Bloch and have been previously characterized (36). Experiments were performed blinded to genotype.
as §1
(§4) The elastic modulus of isolated cardiomyocytes was measured using AFM indentation. Optical microscopy and AFM were performed simultaneously using an MFP3D AFM (Asylum Research) combined with an inverted Nikon TE-2000U microscope equipped with a Nikon 100×, 1.49 NA objective. TTL expression was determined by dsRED fluorescence captured via 532 nm laser excitation (CrystaLaser) and a CCD camera (Cascade-512B, Photometrics) at 900 ms exposure time controlled through the NIS Elements software package. […] Modulus characterization of myocytes was performed using 4.26 μm radius (R below) SiO2 microparticle epoxied to SiN cantilevers with nominal spring constant 0.03 N/m (CP-PNPS-SiO-A, Nano And More, USA). Cantilever spring constants were manually calibrated in air by thermal vibrations using the MFP3D prior to each experiment using a clean glass substrate. Inverse optical lever sensitivity was determined in myocyte buffer solution prior to each round of measurements.
(§5) E is the elastic modulus, υ, is the cell Poisson ratio and δ is the indentation depth. Transverse compression of the cardiomyocyte is performed over a range of indentation speeds and the indentation speed is divided by the total indentation depth to obtain an effective indentation rate, f. […]

[1] = test system: microtubules in contracting cardiomyocytes; test: Microtubule buckling in contracting cardiomyocytes (Airyscan imaging); type: cell-based, rat
Method: as §2
Analysis of buckling parameters was performed on 1-8 microtubules per image series. Analysis was done blind to the experimental condition and, where possible, followed a microtubule selected from resting frames to avoid biased selection of microtubules that buckled during contraction. A centerline was drawn along the axis of the microtubule and the maximum distance to the edge of the microtubule was recorded as the amplitude (FIG. 1G, red). MTs were further analyzed by recording the distance between 2 consecutive inflection points (FIG. 1G, yellow) as half the wavelength. This short metric was selected instead of full wavelength to maximize inclusion of microtubules for which labeling or z-displacement prevented inclusion of a full cycle in the image.

desmin = test: Microtubule co-sedimentation with desmin; type: cell-based; details: after PTL treatment; rat cardiomyocytes and C2C12 cells
Method: Microtubules were isolated for co-sedimentation from isolated cardiomyocytes or C2C12 cells following treatment with parthenolide. Cells were homogenized at 37° C. in 400 μl of microtubule-stabilizing buffer (MSB) by passage through 25G syringe needle. Homogenate was centrifuged to remove cell debris at 2000×g for 5 min at 37° C. and pellet was resuspended in RIPA buffer containing 5 mM CaCl2. Supematant containing free and polymerized tubulin was loaded on a cushion of 10% sucrose in MSB and centrifuged in SW-60 rotor at 100000×g for 30 min at 37° C. Supernatant was saved, pellet (polymerized MT fraction) was resuspended in 0° C. RIPA buffer containing 5 mM CaCl2 and incubated on ice for 10 min. All samples were then centrifuged at 14000×g for 5 min at 0° C. and supernatant was measured by Bradford assay against a BSA (Sigma) standard and boiled in 12-40 μl of 1× loading buffer (Li-COR, 928-40004) prior to western blotting.

desmin KO myocytes = test: AFM viscoelasticity, desmin KO mouse myocytes; type: cell-based; details: KO + PTL
Method: as §3, §1, §4, §5

[2] = rat cardiomyocytes, thresholded immunofluorescence, TTL vs null, PTL vs ctrl

## C=C1C(=O)O[C@H]2[C@H]1CC/C(C)=C/CC[C@@]1(C)O[C@@H]21 [PTL, 4,5-epoxygermacra-1(10),11(13)-dien-12,6-olactone]
Rat adult cardiomyocytes; PTL treatment
  effect on MT network density: no effect
Rat adult cardiomyocytes; isolated rat cardiomyocytes, immunofluorescence and immunoblot
  reduction in the amount/fraction of polymerized, detyrosinated MTs: 2 fold
Rat adult cardiomyocytes; [2]
  Detyr (% cell area): 30.8 % cell area
  α-tub (% cell area): 67.8 % cell area
WT myocytes
  E1 (Pa): 533.11 Pa
  E2 (Pa): 627.4 Pa
  η (Pa*s): 32.9 Pa*s
[1]; amplitude change on same followed MT between rest and contraction
  Amp (Δ): 0.078
[1]; buckling amplitude, contracted cardiomyocytes
  Amp Contract: 0.212
[1]; buckling amplitude, resting cardiomyocytes
  Amp Rest: 0.134
[1]; number of buckled microtubules, N microtubules 24 (Parth) and 62 (TTL)
  N Buckled: 9
[1]; vs control myocytes
  occurrence of buckling: fell significantly
desmin
  amount of desmin associated with the MTs: directly proportional to the amount of MT detyrosination
Desmin KO myocytes
  E1 (Pa): 429.76 Pa
  E2 (Pa): 512.2 Pa
  η (Pa*s): 27.4 Pa*s
